Results: patent US20250186646A1, “Use of Volatile Compositions to Limit or Eliminate Perception of Fecal Malodour” (Firmenich SA, priority 2016, published 2025)

How the values were obtained:
butyric acid = test: Reduction of perceived intensity of butyric acid by MOCs (Table 16); format: in vivo; conditions: for Butyric acid Dyn Conc: concentration at which the MOC reduces the perceived intensity of butyric acid; for Butyric acid Reduction: perceived intensity of butyric acid, at the Dyn Conc
DMTS = test: Reduction of perceived intensity of DMTS by MOCs (Table 16); format: in vivo; conditions: for DMTS Dyn Conc: concentration at which the MOC reduces the perceived intensity of DMTS; for DMTS Reduction: perceived intensity of DMTS, at the Dyn Conc
[1] = Olfactory detection thresholds (ODT); conditions: gas phase
p-cresol = test: Reduction of perceived intensity of p-cresol by MOCs (Table 16); format: in vivo; conditions: for p-cresol Dyn Conc: concentration at which the MOC reduces the perceived intensity of p-cresol; for p-cresol Reduction: perceived intensity of p-cresol, at the Dyn Conc
indole = test: Reduction of perceived intensity of indole by MOCs (Table 16); format: in vivo; conditions: for Indole Dyn Conc: concentration at which the MOC reduces the perceived intensity of indole; for Indole Reduction: perceived intensity of indole, at the Dyn Conc
[2] = system: fecal malodour reconstitution; test: Olfactometer blind sensory evaluation of test and control formulations (Example 15); format: in vivo; set-up: Fecal Score / Freshness Score / Pleasantness Score: scale not given here; conditions: for Fecal Score: in combination with fecal reconstitution; for Fecal Score left: relative to fecal reconstitution alone (100)
Experimental: (§1) The performance of a test formulation containing LILYFLORE, Violet AT and Isoraldeine to counteract the fecal malodour perceived from a fecal malodour reconstitution was tested. The amount of each single ingredient in the test formulation was the same as the corresponding concentration of the ingredient that was incorporated into the Floral compositions. Separate control formulations were also included, comprising LILYFLORE, Violet AT and Isoraldeine separately, at the same concentration as each single ingredient in the test formulation. The sensory evaluation was blind, and performed using olfactometers and a set of more than 30 participants evaluating blind. In parallel, the headspace concentration of the ingredients from the test and three control formulations was determined.
as §1, with “of another” for “of a”, “and dihydrolinalol” for “and Isoraldeine”, “tested.” for “tested. The amount of each single ingredient in the test formulation was the same as the corresponding concentration of the ingredient that was incorporated into the Floral compositions.”
The performance of another test formulation containing LILYFLORE, isoraldeine, Violet AT and dihydrolinalol to counteract the fecal malodour perceived from a fecal malodour reconstitution was tested. Separate control formulations were also included, comprising LILYFLORE, Violet AT, isoraldeine and dihydrolinalol separately, at the same concentration as each single ingredient in the test formulation. The sensory evaluation was blind, and performed using olfactometers and a set of more than 30 participants evaluating blind. In parallel, the headspace concentration of the ingredients from the test and […] control formulations was determined.

butyric acid receptors = test: Ex vivo live neuron assay antagonism screening; format: cell-based, mice; conditions: butyric acid malodour target
Source text: In the ex vivo live neuron assay, olfactory sensory neurons (OSNs) are extracted from the olfactory epithelium of mice and can be tested for responses to sequentially delivered stimuli, where responses are detected through live-cell calcium-imaging microscopy. It has been established through prior research in the field that the vast majority of extracted OSNs express 1 out of the approximately 1200 odourant receptors (ORs) present in the genome of a mouse, such that in our samples of extracted OSNs, the majority of the 1200 ORs should have been represented in at least one OSN. Since the responses of the OSNs to the delivered stimuli are entirely driven by the expressed OR, the OSNs selectively detect and collectively encode the identity and intensity of odourants. By stimulating the OSNs with MO molecules and measuring the response of each OSN, the subset in which a response is induced is those that detect and therefore presumably encode the MO. By subsequently delivering a mixture of MO and a candidate antagonist to the same cells, the degree of suppression of signal in each MO-responsive OSN can be determined (“level of inhibition”). […] In addition, the proportion of MO-responsive OSNs displaying low, medium and high inhibition was calculated. […]

Row | Compound | Butyric acid Dyn Conc (butyric acid) [µg/L] | Butyric acid Reduction (butyric acid) | DMTS Dyn Conc (DMTS) [µg/L] | DMTS Reduction (DMTS) | olfactory detection thresholds (ODT) [1] [µg/L] | p-cresol Dyn Conc (p-cresol) [µg/L] | p-cresol Reduction (p-cresol) | Indole Dyn Conc (indole) [µg/L] | Indole Reduction (indole) | Fecal % Redn ([2]; Table 20) [%] | Freshness Score ([2]; Table 20) | Pleasantness Score ([2]; Table 20) | Fecal Score ([2]; Table 20) | Fecal Score left ([2]; Table 20) | also measured
1 | (+−)-(3E)-4-(2,6,6-trimethyl-2-cyclohexen-1-yl)-3-buten-2-one (A) + (3E)-4-(2,6,6-trimethyl-1-cyclohexen-1-yl)-3-buten-2-one (B) [Violet AT] | 0.123 | 55 | 0.151 | 81 | 0.000508 | 0.133 | 85 | 0.133 | 72 | 44 | 4.1 | 4.2 | 4.9 | 56 | Fecal % Red ([2]; Table 18): 58%; Freshness Score ([2]; Table 18): 4.7; Pleasantness Score ([2]; Table 18): 5.0; Fecal Score ([2]; Table 18): 3.6; Fecal Score left ([2]; Table 18): 42; Fecal % Redn ([2]; Table 19): 53%; Freshness Score ([2]; Table 19): 4.5; Pleasantness Score ([2]; Table 19): 4.8; Fecal Score ([2]; Table 19): 4.1; Fecal Score left ([2]; Table 19): 47
2 | (+−)-(3E)-3-methyl-4-(2,6,6-trimethyl-2-cyclohexen-1-yl)-3-buten-2-one (A) + (+−)-(1E)-1-(2,6,6-trimethyl-2-cyclohexen-1-yl)-1-penten-3-one (B) [Isoraldeine 70P] | 0.0674 | 25 | 0.216 | 69 | 0.000192 | 0.0674 | 49 | 0.542 | 79 | 49 | 4.6 | 4.5 | 4.4 | 51 | Fecal % Red ([2]; Table 18): 58%; Freshness Score ([2]; Table 18): 4.8; Pleasantness Score ([2]; Table 18): 5.1; Fecal Score ([2]; Table 18): 3.6; Fecal Score left ([2]; Table 18): 42
3 | CCCCCC/C(C=O)=C\c1ccccc1 [Hexylcinnamic aldehyde, (2E)-2-benzylideneoctanal] | 1.34 | 26 |  |  |  | 1.34 | 39 |  |  |  |  |  |  |  | 
4 | CC(=O)OC(c1ccccc1)C(Cl)(Cl)Cl (racemic) [Rosinol Cryst, (+−)-2,2,2-TRICHLORO-1-PHENYLETHYL ACETATE] |  |  | 0.659 | 38 |  |  |  |  |  |  |  |  |  |  | 
5 | CCCCCC1CCCC1=O (racemic) [Delphone, (+−)-2-pentylcyclopentanone] |  |  | 0.046 | 67 |  | 0.0488 | 64 |  |  |  |  |  |  |  | 
6 | Cc1ccc2c(c1)CC(C)(CO)C2 (racemic) [LILYFLORE, (+−)-2,5-DIMETHYL-2-INDANMETHANOL] | 0.0351 | 58 | 0.126 | 64 | 0.000128 | 0.22 | 76 | 0.206 | 81 | 45 | 3.9 | 3.8 | 4.8 | 55 | Fecal % Red ([2]; Table 18): 56%; Freshness Score ([2]; Table 18): 4.4; Pleasantness Score ([2]; Table 18): 4.8; Fecal Score ([2]; Table 18): 3.8; Fecal Score left ([2]; Table 18): 44; Fecal % Redn ([2]; Table 19): 45%; Freshness Score ([2]; Table 19): 4.0; Pleasantness Score ([2]; Table 19): 4.1; Fecal Score ([2]; Table 19): 4.7; Fecal Score left ([2]; Table 19): 55
7 | C=CC(C)(O)CCCC(C)C (racemic) [Dihydrolinalol, (+−)-3,7-DIMETHYL-1-OCTEN-3-OL] | 0.76 | 64 |  |  | 0.00137 |  |  |  |  | 30 | 3.2 | 3.2 | 6.1 | 70 | antagonism of malodour receptors (butyric acid receptors): antagonist of butyric acid receptors; Fecal % Redn ([2]; Table 19): 35%; Freshness Score ([2]; Table 19): 3.9; Pleasantness Score ([2]; Table 19): 3.5; Fecal Score ([2]; Table 19): 5.6; Fecal Score left ([2]; Table 19): 65
8 | CC(C)=CCCC(C)CCO (racemic) [Citronellol BJ, (+−)-3,7-DIMETHYL-6-OCTEN-1-OL] | 0.0947 | 55 |  |  |  | 0.11 | 61 | 0.252 | 65 |  |  |  |  |  | 
9 | CC(=O)OCc1ccccc1 [Benzyl acetate, Benzyl Acetate] | 1.31 | 54 |  |  |  |  |  |  |  |  |  |  |  |  | 
10 | C/C=C/C(=O)C1C(C)=CCCC1(C)C (racemic) [Alpha damascone, (+−)-(2E)-1-(2,6,6-trimethyl-2-cyclohexen-1-yl)-2-buten-1-one] | 0.041 | 43 |  |  |  | 0.0413 | 62 |  |  |  |  |  |  |  | 
11 | OCCc1ccccc1 [Phenylethyl alcohol, 2-PHENYLETHANOL] |  |  | 1.03 | 55 |  | 0.318 | 49 | 0.538 | 46 |  |  |  |  |  | 
12 | (1RS,2RS)-2,4-dimethyl-3-cyclohexene-1-carbaldehyde (A) + (1RS,2SR)-2,4-dimethyl-3-cyclohexene-1-carbaldehyde (B) [Zestover] | 0.0809 | 68 | 0.38 | 78 |  | 0.0607 | 66 | 0.348 | 82 |  |  |  |  |  | 
